Like-named read-outs stand apart in the source and are kept apart here.
Experiments:
ovine COX-1 = biological target: T1, ovine COX-1 (Ovis aries, UniProt P05979); assay: Colorimetric COX (ovine) inhibitor screening assay, COX-1; type: biochemical
T1 construct: purchased Cayman Chemical Co. 760111
T1 sequence (P05979 25-600): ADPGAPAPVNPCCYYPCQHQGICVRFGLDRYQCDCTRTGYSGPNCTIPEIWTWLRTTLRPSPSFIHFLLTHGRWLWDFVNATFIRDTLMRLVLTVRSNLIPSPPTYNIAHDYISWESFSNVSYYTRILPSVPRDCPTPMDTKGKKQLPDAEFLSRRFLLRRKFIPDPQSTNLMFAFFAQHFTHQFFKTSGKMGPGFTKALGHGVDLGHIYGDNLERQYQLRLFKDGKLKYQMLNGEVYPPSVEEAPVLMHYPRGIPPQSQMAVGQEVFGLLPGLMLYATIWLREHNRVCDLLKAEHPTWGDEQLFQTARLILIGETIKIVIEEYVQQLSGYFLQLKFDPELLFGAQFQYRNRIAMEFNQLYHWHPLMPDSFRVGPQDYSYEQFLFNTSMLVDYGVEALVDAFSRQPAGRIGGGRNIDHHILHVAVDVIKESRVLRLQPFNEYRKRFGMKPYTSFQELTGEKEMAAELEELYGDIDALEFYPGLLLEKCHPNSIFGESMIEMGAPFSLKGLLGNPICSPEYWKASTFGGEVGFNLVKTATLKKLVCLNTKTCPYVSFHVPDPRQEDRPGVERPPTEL
Description: (§1) The IC50 is the concentration of tested compounds calculated using the regression equation.

ovine COX-2 = biological target: T2, ovine COX-2 (Ovis aries, UniProt P79208); assay: Colorimetric COX (ovine) inhibitor screening assay, COX-2; type: biochemical
T2 construct: purchased Cayman Chemical Co. 760111
T2 sequence (P79208 17-603): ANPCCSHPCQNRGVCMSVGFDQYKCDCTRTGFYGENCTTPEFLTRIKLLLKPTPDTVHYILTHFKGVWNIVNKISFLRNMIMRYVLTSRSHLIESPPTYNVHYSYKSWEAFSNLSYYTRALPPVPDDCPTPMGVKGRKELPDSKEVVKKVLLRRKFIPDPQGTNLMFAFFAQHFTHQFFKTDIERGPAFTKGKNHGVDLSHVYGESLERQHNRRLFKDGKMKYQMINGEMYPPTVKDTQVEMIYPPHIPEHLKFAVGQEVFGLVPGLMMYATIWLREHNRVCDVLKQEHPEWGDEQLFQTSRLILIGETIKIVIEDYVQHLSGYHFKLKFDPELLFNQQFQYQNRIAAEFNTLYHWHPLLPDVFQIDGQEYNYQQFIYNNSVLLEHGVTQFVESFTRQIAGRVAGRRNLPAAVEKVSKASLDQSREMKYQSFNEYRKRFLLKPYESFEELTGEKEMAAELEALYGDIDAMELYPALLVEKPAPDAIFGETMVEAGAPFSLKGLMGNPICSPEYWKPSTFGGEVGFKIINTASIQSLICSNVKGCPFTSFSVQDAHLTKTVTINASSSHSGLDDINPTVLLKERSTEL
Description: as §1

[1] = test system: CFA-induced rat paw edema; assay: CFA-induced chronic inflammation (rat paw oedema); type: in vivo, Wistar rats; settings: 10 mg/kg p.o. once daily
Protocol: (§2) The chronic anti-inflammatory activity of EAFMB was evaluated using the CFA-induced rat paw edema model. Wistar rats of either sex (180 to 200 g) were randomly divided into four groups, each comprising six animals. The control group (Group I) received only a vehicle (0.5% CMC, p.o.). […] Groups III to IV were treated with EAFMB (100 and 200 mg/kg, p.o., respectively) once daily for 21 days. On day 0, chronic inflammation, i.e., arthritis, was induced via injecting 0.1 mL of CFA containing 0.5% of dry heat-killed Mycobacterium tuberculosis in sterile paraffin oil into the sub-plantar region in the left hind paw of rats. The animals were evaluated for the following parameters: • % of a rise or inhibition of oedema
After the CFA injection, the paw oedema was measured using a plethysmograph on day 0 and thereafter on days 4, 8, 14, and 21. The results were expressed as the percent rise in and percent inhibition of paw oedema as per the formulae mentioned in the acute inflammation study. • Hematological Parameters

[2] = test system: carrageenan-induced rat paw edema; assay: Carrageenan-induced acute inflammation (rat paw edema); type: in vivo, Wistar albino rats; settings: 10 mg/kg p.o.
Protocol: The acute anti-inflammatory activity of EAFMB was evaluated using the carrageenan-induced rat paw edema model. Experimental animals were randomly divided into four groups, with six animals in each group. Group I (the control group) received a vehicle (1% CMC). […] Groups III and IV (test group) were given EAFMB at 100 and 200 mg/kg p.o doses, respectively. The drugs were administered orally 1 h before the carrageenan injection. The 0.1 mL of freshly prepared carrageenan suspension was injected into the left hind paw of each rat. The paw volume was measured using a Plethysmometer (Ugo Basile 2470, Italy) at 1, 2, 3, 4, 5, and 6 h after carrageenan administration. The results were expressed as a percentage of the increase in paw swelling and a percentage of the inhibition of paw swelling compared to the initial hind paw thickness. % Increase in Paw Volume =Final Paw Volume at specific time point − Intial Paw Volume at 0 h/Intial Paw Volume at 0 h×100 % Inhibition=Paw Volume at of Control − Paw Volume of treated group/Intial Paw VoluPaw Volume at of Control me at 0 h×100

[3] = test system: CFA-induced chronic inflammation rats; assay: Hematological parameters in CFA-induced chronic inflammation; type: in vivo, Wistar rats; settings: 10 mg/kg p.o. once daily for 21 days; blood on 21st day
Protocol: as §2
On the 21st day, blood was withdrawn through a retro-orbital plexus puncture from all treated groups under light ether anesthesia. The hematological parameters like hemoglobin content, total WBC count, ESR, and RBC were analyzed using Yumizen H550, HORIBA Hematology Analyzer, France.

## Oc1cc(O)c2c(c1)OC(c1ccc(O)c(O)c1)C(O)C2 (stereo not shown) [Catechin, catechin]
Ovine COX-1
  IC50: 9.02 µM
Ovine COX-2
  IC50: 50.4 µM

## O=C(O)C=Cc1ccc(O)cc1 [P-hydroxycinnamic acid, p-hydroxycinnamic acid]
Ovine COX-1; ovine COX-1, colorimetric, TMPD 590 nm, read-out: COX Inhibition (IC50) COX-1
  IC50: 229 µM
Ovine COX-2; ovine COX-2, colorimetric, TMPD 590 nm, read-out: COX Inhibition (IC50) COX-2
  IC50: 246 µM

## COc1ccc2c(c1)c(CC(=O)O)c(C)n2C(=O)c1ccc(Cl)cc1 [Indomethacin, indomethacin]
[1]; 4th day after CFA
  % Inhibition of paw oedema: 46.78%
  % Rise in Paw Oedema: 41.92 ± 1.46%
[1]; 8th day after CFA
  % Inhibition of paw oedema: 70.16%
  % Rise in Paw Oedema: 27.95 ± 1.58%
[1]; 14th day after CFA
  % Inhibition of paw oedema: 84.48%
  % Rise in Paw Oedema: 14.77 ± 1.39%
[1]; 21st day after CFA
  % Inhibition of paw oedema: 87.35%
  % Rise in Paw Oedema: 11.99 ± 0.89%
[2]; 1 h after carrageenan
  % Inhibition of paw oedema: 27.78%
  % Rise in Paw Oedema: 14.28 ± 0.42%
[2]; 2 h after carrageenan
  % Inhibition of paw oedema: 56.84%
  % Rise in Paw Oedema: 15.85 ± 0.41%
[2]; 3 h after carrageenan
  % Inhibition of paw oedema: 57.97%
  % Rise in Paw Oedema: 18.19 ±0.36%
[2]; 4 h after carrageenan
  % Inhibition of paw oedema: 59.39%
  % Rise in Paw Oedema: 21.01 ± 0.51%
[2]; 5 h after carrageenan
  % Inhibition of paw oedema: 54.37%
  % Rise in Paw Oedema: 26.18 ± 0.63%
[2]; 6 h after carrageenan
  % Inhibition of paw oedema: 48.18%
  % Rise in Paw Oedema: 31.2 ± 0.81%
[3]
  ESR: 5.42 ± 0.31 mm/h
  Hb: 14.62 ± 0.27 g%
  RBC: 9.58 ± 0.27 millions/cubic mm
  WBC: 6.37 ± 0.36 *** 10^3/cubic mm

Reference: PMC10538222, “Isolation and Characterization of Anti-Inflammatory Compounds from Ficus microcarpa L.f. Stem Bark” (Plants, 2023)
